Columns and labels:
[1] = target: T1, androgen receptor (AdEasy+rAR, L929 cells) (Rattus norvegicus, UniProt P15207); experiment: L929 Androgen Receptor Functional Assay, Adenovirus Transduction; assay type: cell-based; settings: agonist testing, 3000 nM
T1 construct: expressed in transfected cells; host or cells: L929 cells transduced with adenovirus AdEasy+rAR
T1 sequence (P15207 1-902): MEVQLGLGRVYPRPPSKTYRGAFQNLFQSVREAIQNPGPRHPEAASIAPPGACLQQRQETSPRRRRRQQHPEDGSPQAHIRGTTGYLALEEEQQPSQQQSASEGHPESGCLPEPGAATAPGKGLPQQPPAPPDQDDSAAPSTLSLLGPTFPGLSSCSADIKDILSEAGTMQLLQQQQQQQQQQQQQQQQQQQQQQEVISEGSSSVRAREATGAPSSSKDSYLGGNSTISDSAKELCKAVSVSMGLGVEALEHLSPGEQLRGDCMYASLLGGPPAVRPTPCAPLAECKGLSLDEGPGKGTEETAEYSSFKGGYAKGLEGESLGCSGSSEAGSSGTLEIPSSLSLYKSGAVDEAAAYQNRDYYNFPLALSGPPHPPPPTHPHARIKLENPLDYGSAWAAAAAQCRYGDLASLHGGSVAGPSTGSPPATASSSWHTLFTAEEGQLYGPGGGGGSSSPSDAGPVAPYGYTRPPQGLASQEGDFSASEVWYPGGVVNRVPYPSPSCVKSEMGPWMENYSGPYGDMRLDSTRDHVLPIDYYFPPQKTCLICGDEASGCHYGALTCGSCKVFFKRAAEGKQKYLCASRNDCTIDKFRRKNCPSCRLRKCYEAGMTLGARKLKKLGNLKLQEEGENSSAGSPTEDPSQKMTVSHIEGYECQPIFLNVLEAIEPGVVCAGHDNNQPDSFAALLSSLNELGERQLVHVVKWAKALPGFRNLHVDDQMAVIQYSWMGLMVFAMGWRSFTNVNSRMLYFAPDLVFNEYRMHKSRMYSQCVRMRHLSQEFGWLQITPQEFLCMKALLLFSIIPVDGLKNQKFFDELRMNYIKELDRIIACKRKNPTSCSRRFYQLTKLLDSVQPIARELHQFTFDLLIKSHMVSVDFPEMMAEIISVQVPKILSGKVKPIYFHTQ
Protocol: L929 cells were plated in 96-well plates at 20,000 cells per well, in DMEM/F12 (GIBCO) containing 10% (v/v) charcoal-treated fetal bovine serum (Hyclone) and lacking phenol red. The plates were then incubated overnight at 37° C. in 5% (v/v) humidified CO2.
Test compound dilutions were prepared in 100% (v/v) DMSO, if necessary. Each dilution was made to 1250× the final desired assay concentration.
First, 2 mL of DMEM/F12 lacking phenol red was pipetted into the wells of a 2-mL 96-well assay block. Next, 4 μL of the 1250× test compound dilutions were pipetted into each well of the assay block. The mixtures within the well were then carefully mixed by pipette.
In a 15 mL or 50 mL sterile centrifuge tube, a 2.5 nM (2.5×) dilution of R1881 (methyl-trienolone) in DMEM/F12 lacking phenol red was prepared.
In a second 15 mL or 50 mL centrifuge tube a solution containing an equal volume of DMEM to the first and an equal volume of 100% (v/v) DMSO to the volume of R1881 used in the first tube was prepared.
In a 15 mL or 50 mL sterile centrifuge tube, a dilution in DMEM/F12 of the adenovirus AdEasy+rAR at an moi of 1:500 per well was prepared.
The medium was removed from the 96-well plates by inversion and dried, inverted, very briefly. As soon as possible after medium removal, 40 μL of the diluted unlabeled test compound was added to each well, in duplicate. To each well designated for antagonist testing was added 40 μL of the 2.5 nM R1881 dilution to the wells for antagonist testing. To each well designated for agonist testing was added 40 μL of the DMSO dilution. Then 20 μL of the diluted adenovirus were added to all wells. The plates were incubated for 48 hours at 37° C. in 5% (v/v) humidified CO2.
To each well was added 100 μL of Steady-Glo luciferase assay substrate (Promega) and the plates were placed on a rotary shaker for 1 min. The plates were then incubated at room temperature in the dark for one hour. The contents of each well were then transferred to a white microtiter plate (Packard) and read on a Luminoskan Ascent (Thermo Lab Systems).
L929 AR percent activity was determined by testing dilutions of the test compound using a concentration of 3000 nM unless otherwise noted. L929 percent inhibition was determined by testing dilutions of the test compound using a concentration of 3000 nM. […] Luciferase activity per well were measured and EC50s and IC50s determined by linear regression.

[2] = system: testosterone-enhanced ventral prostate and seminal vesicle weights; experiment: Ventral Prostate and Seminal Vesicle Weight in vivo Assay; design: species or system rat; settings: immature castrated male Sprague Dawley rats, once daily for five days, usually orally 40 mg/kg, with testosterone propionate 2 mg/kg s.c. Also: key: 'active' if the non weight adjusted prostate weight was ≦40 mg or the % Inhibition prostate weight, body weight adjusted was ≧40% @ 2 mg/day dosage; ID50's, if determined, of ≦15 mg/day also indicated an 'active' compound; listed herein as 'inactive' as they did not meet the specified criteria defined above.
Protocol: Immature (approximately 50 g) castrated male Sprague Dawley rats (Charles River) were treated once daily for five days with test compound (usually given orally at 40 mg/kg in a volume of 0.3 mL, in 30% cyclodextrin or 0.5% methylcellulose vehicle) and with testosterone propionate (given subcutaneously by injection at the nape of the neck at 2 mg/kg, in a volume of 0.1 mL in sesame oil). On the sixth day, the rats were euthanized by asphyxiation in carbon dioxide. Ventral prosatates and seminal vesicles were removed and their wet weights determined.
A test compound was said to be “active” if the non weight adjusted prostate weight was ≦40 mg or the % Inhibition prostate weight, body weight adjusted was ≧40% @ 2 mg/day dosage.

Structure (SMILES)	% Activity, L929 androgen receptor functional assay [1] [%]	active / inactive: inhibition of testosterone-enhanced prostate weight [2]
CC(O)(CSc1ccc(N)cc1)c1cc2cc(Cl)c(C(F)(F)F)cc2n1S(C)(=O)=O (racemic) [Compound 125]	−5	
CC(C)(O)c1[nH]c2cc(C(F)(F)F)c([N+](=O)[O-])cc2c1Cl [Compound 275]		active
CCS(=O)(=O)CC(C)(O)c1cc2cc(C#N)c(C(F)(F)F)cc2[nH]1 (single isomer, unassigned) [Compound 397]		inactive
CCSCC(C)(O)c1cc2cc(Cl)c(C(F)(F)F)cc2n1S(C)(=O)=O (racemic) [Compound 146]		inactive
CCS(=O)(=O)CC(C)(O)c1cc2cc(C#N)c(C(F)(F)F)cc2[nH]1 (racemic) [Compound 407]		inactive
CCSCC(C)(O)c1[nH]c2cc(C(F)(F)F)c(C#N)cc2c1I (racemic) [Compound 324]		inactive
N#Cc1cc2cc(C3(O)CCSC3)[nH]c2cc1C(F)(F)F (racemic) [Compound 15]		inactive
CC(C)(O[Si](C)(C)C)c1cc2cc(Cl)c(C(F)(F)F)cc2n1S(C)(=O)=O [Compound 270]		inactive
CC[S+]([O-])CC(C)(O)c1[nH]c2cc(C(F)(F)F)c(C#N)cc2c1C (mixture of isomers) [Compound 245]		inactive
CC(C)(O)c1[nH]c2cc(C(F)(F)F)c(C#N)cc2c1C#N [Compound 295]		inactive
CCSCC(C)(O)c1cc2cc(Cl)c(C#N)cc2[nH]1 (single isomer, unassigned) [Compound 228]		inactive
CC(C)(O)c1[nH]c2cc(C(F)(F)F)c(Cl)cc2c1Br [Compound 280]		inactive
CC(O)(c1cc2cc(C#N)c(C(F)(F)F)cc2[nH]1)C(F)(F)F (stereo not drawn) [Compound 334, 2-(2,2,2-Trifluoro-1-hydroxy-1-methyl-ethyl)-6-trifluoromethyl-1H-indole-5-carbonitrile]		active
CCSCC(C)(O)c1cc2cc(C#N)ncc2[nH]1 (stereo not drawn) [Compound 7]		inactive
CCS(=O)(=O)CC(O)c1cc2cc(C#N)c(C(F)(F)F)cc2[nH]1 (racemic) [Compound 412]		inactive
CCSCC(O)c1[nH]c2cc(C(F)(F)F)c(C#N)cc2c1I (racemic) [Compound 411]		inactive
CCSCC(O)(c1cc2cc(C#N)c(C(F)(F)F)cc2[nH]1)C(F)(F)F (racemic) [Compound 327]		active
CC(O)(COc1cccc([N+](=O)[O-])c1)c1cc2cc(C#N)c(C(F)(F)F)cc2[nH]1 (stereo not drawn) [Compound 428, 2-[1-Hydroxy-1-methyl-2-(3-nitro-phenoxy)-ethyl]-6-trifluoromethyl-1H -indole-5-carbonitrile]		inactive
CCSCC(C)(O)c1c(C)c2cc(C#N)c(C(F)(F)F)cc2n1C (single isomer, unassigned) [Compound 317]		inactive
CC(C)(O[Si](C)(C)C)c1cc2cc([N+](=O)[O-])c(C(F)(F)F)cc2n1S(C)(=O)=O [Compound 269]		inactive
CC(O)(CSCC(F)(F)F)c1cc2cc(C#N)c(C(F)(F)F)cc2[nH]1 (racemic) [Compound 211]	−1	

From patent US7282507B2, “Indole derivatives as selective androgen receptor modulators (SARMS)” (Janssen Pharmaceutica N.V., priority 2004, dated 2007)
